# Source: ChEMBL document CHEMBL3885861, “Open TG-GATES”
# Species: Rattus norvegicus
# Assay: Open TG-GATES - Regimen: Daily Repeat
# Assay type: toxicity, organism-based, Sprague-Dawley
# Parameters: regimen Daily Repeat, gender Male, age 6 weeks
# Details: in vivo, po, 0 mg/kg, route gavage, dose level Control; for APTT / Bas / Eos / Fbg / Hb / Ht / Lym / MCH / MCHC / MCV / Mono / Neu / PT / Plat / RBC / Ret / WBC: tissue Blood; for KIDNEY_L / KIDNEY_R / KIDNEY_TOTAL: tissue Kidney; for LIVER: tissue Liver; for A/G / ALP / ALT / AST / BUN / CRE / Ca / Cl / DBIL / GLC / IP / K / LDH / Na / PL / RALB / TBIL / TC / TG / TP / gamma-GTP: tissue Plasma
structure (smiles),measurement,setting,value
CCOC(=O)CCC(=O)O[C@H]1[C@H](O[C@@H]2[C@@H](C)[C@H](O[C@H]3C[C@@](C)(OC)[C@@H](O)[C@H](C)O3)[C@@H](C)C(=O)O[C@H](CC)[C@@](C)(O)[C@H](O)[C@@H](C)C(=O)[C@H](C)C[C@@]2(C)O)O[C@H](C)C[C@@H]1N(C)C [ERYTHROMYCIN ETHYLSUCCINATE],TERMINAL_BW,"72 h, time 3 day",237.5 g
same,APTT,"72 h, time 3 day",21.3 s
same,Bas,"72 h, time 3 day",0%
same,Eos,"72 h, time 3 day",1%
same,Fbg,"72 h, time 3 day",295.4 mg/dL
same,Hb,"72 h, time 3 day",13.4 g/dL
same,Ht,"72 h, time 3 day",39.6%
same,Lym,"72 h, time 3 day",78.6%
same,MCH,"72 h, time 3 day",21.3 pg
same,MCHC,"72 h, time 3 day",33.7%
same,MCV,"72 h, time 3 day",63 fL
same,Mono,"72 h, time 3 day",3.4%
same,Neu,"72 h, time 3 day",16.2%
same,PT,"72 h, time 3 day",16.3 s
same,Plat,"72 h, time 3 day",124.3 x10_4/uL
same,RBC,"72 h, time 3 day",628.8 x10_4/ul
same,Ret,"72 h, time 3 day",6.2%
same,WBC,"72 h, time 3 day",96.6 x10_2/uL
same,KIDNEY_L,"72 h, time 3 day",1.1 g
same,KIDNEY_R,"72 h, time 3 day",1.1 g
same,KIDNEY_TOTAL,"72 h, time 3 day",2.1 g
same,LIVER,"72 h, time 3 day",10.7 g
same,A/G,"72 h, time 3 day",1.2
same,ALP,"72 h, time 3 day",1575.2 IU/L
same,ALT,"72 h, time 3 day",38.2 IU/L
same,AST,"72 h, time 3 day",68.6 IU/L
same,BUN,"72 h, time 3 day",17.8 mg/dL
same,CRE,"72 h, time 3 day",0.2 mg/dL
same,Ca,"72 h, time 3 day",10.1 mg/dL
same,Cl,"72 h, time 3 day",107.6 meq/L
same,DBIL,"72 h, time 3 day",0 mg/dL
same,GLC,"72 h, time 3 day",198.2 mg/dL
same,IP,"72 h, time 3 day",6.6 mg/dL
same,K,"72 h, time 3 day",4.3 meq/L
same,LDH,"72 h, time 3 day",181.8 IU/L
same,Na,"72 h, time 3 day",141 meq/L
same,PL,"72 h, time 3 day",139.8 mg/dL
same,RALB,"72 h, time 3 day",2.9 g/dL
same,TBIL,"72 h, time 3 day",0.016 mg/dL
same,TC,"72 h, time 3 day",71.4 mg/dL
same,TG,"72 h, time 3 day",91 mg/dL
same,TP,"72 h, time 3 day",5.4 g/dL
same,gamma-GTP,"72 h, time 3 day",1.2 IU/L
same,TERMINAL_BW,"[…], time 7 day",272.7 g
same,TERMINAL_BW,"[…], time 14 day",330.3 g
same,TERMINAL_BW,"[…], time 28 day",372.4 g
same,APTT,"[…], time 7 day",20.5 s
same,Bas,"[…], time 7 day",0%
same,Eos,"[…], time 7 day",1%
same,Fbg,"[…], time 7 day",307.2 mg/dL
same,Hb,"[…], time 7 day",14.1 g/dL
same,Ht,"[…], time 7 day",41.9%
same,Lym,"[…], time 7 day",78.2%
same,MCH,"[…], time 7 day",21 pg
same,MCHC,"[…], time 7 day",33.6%
same,MCV,"[…], time 7 day",62.4 fL
same,Mono,"[…], time 7 day",2.4%
same,Neu,"[…], time 7 day",17.4%
same,PT,"[…], time 7 day",16.6 s
same,Plat,"[…], time 7 day",119.4 x10_4/uL
same,RBC,"[…], time 7 day",673.2 x10_4/ul
same,Ret,"[…], time 7 day",6.2%
same,WBC,"[…], time 7 day",121.5 x10_2/uL
same,APTT,"[…], time 14 day",22.3 s
same,Bas,"[…], time 14 day",0%
same,Eos,"[…], time 14 day",1%
same,Fbg,"[…], time 14 day",317.8 mg/dL
same,Hb,"[…], time 14 day",13.9 g/dL
same,Ht,"[…], time 14 day",40.4%
same,Lym,"[…], time 14 day",80.2%
same,MCH,"[…], time 14 day",21.2 pg
same,MCHC,"[…], time 14 day",34.5%
same,MCV,"[…], time 14 day",61.5 fL
same,Mono,"[…], time 14 day",2.4%
same,Neu,"[…], time 14 day",14.8%
same,PT,"[…], time 14 day",16.3 s
same,Plat,"[…], time 14 day",104.3 x10_4/uL
same,RBC,"[…], time 14 day",656.6 x10_4/ul
same,Ret,"[…], time 14 day",5.2%
same,WBC,"[…], time 14 day",110.8 x10_2/uL
same,APTT,"[…], time 28 day",24.4 s
same,Bas,"[…], time 28 day",0%
same,Eos,"[…], time 28 day",1%
same,Fbg,"[…], time 28 day",317.2 mg/dL
same,Hb,"[…], time 28 day",15.2 g/dL
same,Ht,"[…], time 28 day",44%
same,Lym,"[…], time 28 day",81.8%
same,MCH,"[…], time 28 day",19.4 pg
same,MCHC,"[…], time 28 day",34.6%
same,MCV,"[…], time 28 day",56.2 fL
same,Mono,"[…], time 28 day",2.8%
same,Neu,"[…], time 28 day",13%
same,PT,"[…], time 28 day",16.4 s
same,Plat,"[…], time 28 day",99.6 x10_4/uL
same,RBC,"[…], time 28 day",783.8 x10_4/ul
same,Ret,"[…], time 28 day",2.7%
same,WBC,"[…], time 28 day",109.9 x10_2/uL
same,KIDNEY_L,"[…], time 7 day",1.1 g
same,KIDNEY_R,"[…], time 7 day",1.1 g
same,KIDNEY_TOTAL,"[…], time 7 day",2.2 g
same,KIDNEY_L,"[…], time 14 day",1.3 g
same,KIDNEY_R,"[…], time 14 day",1.3 g
same,KIDNEY_TOTAL,"[…], time 14 day",2.6 g
same,KIDNEY_L,"[…], time 28 day",1.4 g
same,KIDNEY_R,"[…], time 28 day",1.4 g
same,KIDNEY_TOTAL,"[…], time 28 day",2.8 g
same,LIVER,"[…], time 7 day",12.3 g
same,LIVER,"[…], time 14 day",14.7 g
same,LIVER,"[…], time 28 day",14.6 g
same,A/G,"[…], time 7 day",1.1
same,ALP,"[…], time 7 day",1670.4 IU/L
same,ALT,"[…], time 7 day",43 IU/L
same,AST,"[…], time 7 day",72.2 IU/L
same,BUN,"[…], time 7 day",20.4 mg/dL
same,CRE,"[…], time 7 day",0.2 mg/dL
same,Ca,"[…], time 7 day",10.7 mg/dL
same,Cl,"[…], time 7 day",107.6 meq/L
same,DBIL,"[…], time 7 day",0 mg/dL
same,GLC,"[…], time 7 day",216.8 mg/dL
same,IP,"[…], time 7 day",7.3 mg/dL
same,K,"[…], time 7 day",4.3 meq/L
same,LDH,"[…], time 7 day",201.8 IU/L
same,Na,"[…], time 7 day",141.2 meq/L
same,PL,"[…], time 7 day",155.2 mg/dL
same,RALB,"[…], time 7 day",2.9 g/dL
same,TBIL,"[…], time 7 day",0 mg/dL
same,TC,"[…], time 7 day",70.8 mg/dL
same,TG,"[…], time 7 day",133.4 mg/dL
same,TP,"[…], time 7 day",5.6 g/dL
same,gamma-GTP,"[…], time 7 day",1.4 IU/L
same,A/G,"[…], time 14 day",1.1
same,ALP,"[…], time 14 day",1330.4 IU/L
same,ALT,"[…], time 14 day",46.6 IU/L
same,AST,"[…], time 14 day",76 IU/L
same,BUN,"[…], time 14 day",21 mg/dL
same,CRE,"[…], time 14 day",0.2 mg/dL
same,Ca,"[…], time 14 day",10.5 mg/dL
same,Cl,"[…], time 14 day",105.2 meq/L
same,DBIL,"[…], time 14 day",0 mg/dL
same,GLC,"[…], time 14 day",207.2 mg/dL
same,IP,"[…], time 14 day",7.1 mg/dL
same,K,"[…], time 14 day",4.5 meq/L
same,LDH,"[…], time 14 day",208.6 IU/L
same,Na,"[…], time 14 day",141.4 meq/L
same,PL,"[…], time 14 day",153.4 mg/dL
same,RALB,"[…], time 14 day",2.9 g/dL
same,TBIL,"[…], time 14 day",0 mg/dL
same,TC,"[…], time 14 day",73 mg/dL
same,TG,"[…], time 14 day",135.2 mg/dL
same,TP,"[…], time 14 day",5.7 g/dL
same,gamma-GTP,"[…], time 14 day",2.2 IU/L
same,A/G,"[…], time 28 day",1.1
same,ALP,"[…], time 28 day",1212.8 IU/L
same,ALT,"[…], time 28 day",45.8 IU/L
same,AST,"[…], time 28 day",71.6 IU/L
same,BUN,"[…], time 28 day",19.6 mg/dL
same,CRE,"[…], time 28 day",0.2 mg/dL
same,Ca,"[…], time 28 day",10.4 mg/dL
same,Cl,"[…], time 28 day",106.6 meq/L
same,DBIL,"[…], time 28 day",0 mg/dL
same,GLC,"[…], time 28 day",189.4 mg/dL
same,IP,"[…], time 28 day",6.2 mg/dL
same,K,"[…], time 28 day",4.1 meq/L
same,LDH,"[…], time 28 day",130.6 IU/L
same,Na,"[…], time 28 day",141 meq/L
same,PL,"[…], time 28 day",135.8 mg/dL
same,RALB,"[…], time 28 day",3 g/dL
same,TBIL,"[…], time 28 day",0.01 mg/dL
same,TC,"[…], time 28 day",62 mg/dL
same,TG,"[…], time 28 day",118.4 mg/dL
same,TP,"[…], time 28 day",5.9 g/dL
same,gamma-GTP,"[…], time 28 day",2.8 IU/L
